Reference: patent publication US6716829B2, “Aldosterone antagonist and cyclooxygenase-2 inhibitor combination therapy to prevent or treat inflammation-related cardiovascular disorders” (Pharmacia Corporation, priority 2000, dated 2004)
Several values for one entry are separate records, joined by “and”; a condition that tells them apart may be missing. Equal values may be shown once. Entries after “also recorded” stand apart in the source; their conditions may differ.

What was measured:
[1] = test system: Osteopontin; assay: Assay C: osteopontin mRNA in heart by TaqMan RT-PCR; type: in vivo, Male Sprague-Dawley rats; conditions: for Osteop-pontin mRNA (AU): relative to cyclophilin expression, mean ± SEM, eplerenone dose 100 mg/kg/day; for Osteopontin (AU): mRNA, individual rats, incl. rat marked * excluded from statistics
Method: The procedure of Assay B was expanded upon in a further study. […] Myocardial tissue from animals in each treatment group was examined after 7, 14, or 30 days of treatment.
Potassium chloride supplementation was added to the saline solution in order to prevent the potential hypokalemia associated with aldosterone excess.
At the time of the surgery, an Alzet 2002 osmotic minipump (Alza Corp., Palo Alto, Calif.) containing either vehicle (9% ethanol/87% propylene glycol/4% dH2O) or 1.0 mg/mL d-aldosterone (Sigma Chemical, St. Louis, Mo.) was inserted subcutaneously at the nape of the neck. Aldosterone was administered at a dose of 0.75 µg/hour. […] Animals were sacrificed from each group (n=8-13) after 7, 14, or 30 days of treatment.
The fluorogenic 5′-nuclease assay (TaqMan PCR) using Applied Biosystems' 7700 Sequence Detection System (Applied Biosystems, Foster City, Calif.) allowed for real time detection/quantitation of a specific gene by monitoring the increase in fluorescence of a gene-specific, dye-labeled oligonucleotide probe. Probes for target and reference genes were labeled at the 5′-end with a 6-carboxyfluorescein (6FAM) reporter dye and at the 3′-end with a 6-carboxy-N,N,N′,N′-tetramethylrhodamine (TAMRA) quencher dye. When the probe was annealed to the target gene, fluorescence of 6FAM was prevented by the close proximity of TAMRA. The exonuclease activity of Taq polymerase released the dyes from the oligonucleotide probe by displacing the probe from the target sequence resulting in fluorescence excitation in direct proportion to the amount of target message present. Data analysis was performed using the Sequence Detection System software from Applied Biosystems.
All primers and probes were designed using Primer Express software supplied with the 7700 Sequence Detection System and synthesized by Applied Biosystems. Standard curves using 5-fold dilutions of total RNA (from 200 ng to 320 pg) were performed to determine the efficiency of each primer/probe set in the TaqMan reaction prior to the analysis of the experimental samples. Primer/probe sets were designed from known sequences of rat genes to be analyzed. All target gene values were normalized to a reference gene, constitutively expressed cyclophilin. Primer/probe set sequences can be found in Table 8.
RNA was extracted from frozen (−80° C.) rat heart tissue using the Totally RNA Isolation Kit (Ambion, Inc., Austin, Tex.). Tissue was crushed using a stainless steel mortar and pestle, which had been chilled to −80° C. and transferred to a dounce homogenizer (Kontes, Vineland, N.J.) containing 3-10 mL cold denaturation buffer. Tissue was homogenized and transferred to a sterile, 15 mL polypropylene centrifuge tube. An equal volume of phenol:chloroform:isoamyl alcohol (25:24:1) was added, samples were shaken vigorously for 1 min, and incubated on ice for at least 15 min. Samples were centrifuged for 30 min at 10,000g. The aqueous phase was removed, 1/10 volume of a sodium acetate solution (3.0 M NaOAc pH 4.5) was added, samples were shaken or inverted for 10 seconds, and acid-phenol (premixed with isoamyl alcohol):chloroform (5:1, Ambion, Inc.) was added at an volume equivalent to the starting sample volume. Samples were shaken vigorously for 1 min, followed by a 15-min incubation on ice, and centrifuged for 30 min at 10,000 g. The aqueous phase removed and placed in a clean polypropylene tube. An equal volume of isopropanol (Sigma, St. Louis, Mo.) was added and the samples were mixed and incubated overnight at −20° C. The samples were centrifuged for 30 min at 10,000 g, the supernatant was removed and the RNA pellet was resuspended in DNAse/RNAse-free water. Samples were frozen at −80° C. for at least 2 hours, thawed on wet ice, and diluted for quantitation.

[2] = test system: cyclooxgenase-2; assay: Assay A: immunostaining of hearts with cyclooxygenase-2 specific antibody; type: in vivo, Male Wistar rats; conditions: angiotensin II infused rats, eplerenone 100 mpk, aldosterone replacement in adrenalectomized rats
From the text: Cycloxygenase-2 staining was also observed in the vascular smooth muscle cells of the media of coronary arteries, even when there was no evidence of morphologic alterations or inflammatory aggregates in the perivascular space (FIG. 26).

[3] = test system: myocardial injury; assay: Assay C: histopathologic analysis, semi-quantitative myocardial injury score 0 to 4; type: in vivo, Male Sprague-Dawley rats; conditions: for Myocardial injury / vascular inflammatory damage (histopathology): aldosterone + salt, 7, 14, 30 days, eplerenone 100 mg/kg/day; for Myocardia 1 Necrosis (0-4): eplerenone dose 100 mg/kg/day
Method: The procedure of Assay B was expanded upon in a further study. […] Myocardial tissue from animals in each treatment group was examined after 7, 14, or 30 days of treatment. […] Lesions were preceded by the expression and progressive upregulation of proinflammatory molecules. […] Prior to surgery the animals were individually weighed and placed in one of the following groups: […] Potassium chloride supplementation was added to the saline solution in order to prevent the potential hypokalemia associated with aldosterone excess. […] Louis, Mo.) was inserted subcutaneously at the nape of the neck. Aldosterone was administered at a dose of 0.75 µg/hour. […] Animals were sacrificed from each group (n=8-13) after 7, 14, or 30 days of treatment. Following exsanguination, hearts and kidneys were isolated, removed, rinsed in cold phosphate-buffered saline, and blotted dry. […] The equatorial regions of the heart were routinely processed into paraffin with an automated tissue processor (Hypercenter XP, Shandon/Lipshaw Inc., Pittsburgh, Pa.) and embedded into fresh paraffin apical side down (Shandon Embedding Center, Shandon/Lipshaw Inc.). Five and 10 µm sections were cut from each block of tissue using a Leica RM2035 rotary microtome (Leica Inc., Houston, Tex.) and mounted on Superfrost/Plus microscope slides (Fisher Scientific, Pittsburgh, Pa.). Ten […]m sections were stained with the collagen specific stain, Picrosirius Red F3BA (Saturated Picric Acid (Sigma Chemical, St. […] Waterbury, Conn.) (6). Mounted tissues were hydrated with water. […] Slides were coverslipped with #1 cover glass using Permount Histological Mounting Media (Fisher Scientific). Two slides mounted with 5 µm sections were cut for each animal. One slide was processed for H&E staining and one for Periodic Acid Schiff (PAS) staining. The H&E and PAS were used for pathological scoring of the hearts. Semi-quantification of myocardial injury was performed as described previously with minor modifications (7). Briefly, a scale from 0 to 4 was used to score the level of myocardial injury. A score of 0 represented no damage. […] Myocardial necrosis was defined as the presence of necrotic changes in cardiomyocytes such as nuclear pyknosis or karyolysis, non-contracting marginal wavy fibers and hypereosinophilia of the cytoplasm, or clear evidence of destruction of the cardiomyocyte membrane.

[4] = 7-day protocol, score 0-4, individual rats and group Mean
[5] = group mean, data used for Table 15 (14 days of treatment)
[6] = group mean, data used for Table 16 (30 days of treatment)
[7] = mean ± SEM after 7 days of treatment
[8] = mean ± SEM after 14 days of treatment
[9] = mean ± SEM after 30 days of treatment

SMILES | Osteop-pontin mRNA (AU) ([1]; after 7 days of treatment) | Osteop-pontin mRNA (AU) ([1]; after 14 days of treatment) | Osteop-pontin mRNA (AU) ([1]; after 30 days of treatment) | Cyclooxygenase-2 expression in the heart (immunostaining) [2] | Myocardial Necrosis (0-4) [3, 4] | Myocardial injury / vascular inflammatory damage (histopathology) [3] | Myocardial Necrosis (0-4) [3, 5] | Myocardial Necrosis (0-4) [3, 6] | Myocardia 1 Necrosis (0-4) [3, 7] | Myocardia 1 Necrosis (0-4) [3, 8] | Myocardia 1 Necrosis (0-4) [3, 9] | also measured
C[C@]12CCC(=O)C=C1CC[C@@H]1[C@@H]2[C@@H](O)C[C@]2(C=O)[C@@H](C(=O)CO)CC[C@@H]12 [Aldosterone] | 1.91 AU | 6.56 AU | 13.27 AU | restored the presence of cycloxygenase-2 | 0.0 | focal arterial and myocardial alterations were observed starting at 14 days; also recorded: induced vascular inflammation and cardiac tissue damage | 0.8 | 2.0 | 0.0 ± 0.0 | 0.8 ± 0.3 | 2.0 ± 0.4 | Osteopontin expression upregulation ([1]; after 14 days of aldosterone + salt treatment): ~6 fold; Osteopontin expression upregulation ([1]; after 30 days of aldosterone + salt treatment): ~13 fold; Osteopontin (AU) ([1]; data used for Table 17 (7-day protocol), listed as Aldosterone + salt): 1.84 AU and 0.84 AU and 0.95 AU and 1.05 AU and 1.08 AU and 4.92 AU and 3.29 AU and 1.32 AU and 28.64 AU; Osteopontin (AU) ([1]; data used for Table 18 (14-day protocol), listed as Aldosterone + salt): 8.14 AU and 1.02 AU and 6.19 AU and 4.06 AU and 12.04 AU and 2.35 AU and 8.25 AU and 10.41 AU and 81.29 AU; Osteopontin (AU) ([1]; data used for Table 19 (30-day protocol), listed as Aldosterone + salt): 13.13 AU and 11.43 AU and 13.78 AU and 7.97 AU and 18.44 AU and 14.88 AU; Myocardial Necrosis (0-4) ([3]; individual rats, data used for Table 15 (14 days of treatment), incl. rat marked * excluded from statistics, listed as Aldosterone + salt): 0.0 (7×) and 1.0 (3×) and 3.0 (3×); Myocardial Necrosis (0-4) ([3]; individual rats, data used for Table 16 (30 days of treatment), incl. rat marked * excluded from statistics, listed as Aldosterone + salt): 1.5 and 2.5 and 3.0 (2×) and 2.0 (2×) and 0.5 and 0.3 and 3.5
COC(=O)[C@@H]1CC2=CC(=O)CC[C@]2(C)[C@@]23O[C@@H]2C[C@@]2(C)[C@@H](CC[C@@]24CCC(=O)O4)[C@H]13 [Eplerenone] | 0.75 AU | 2.94 AU | 2.59 AU | markedly reduced and in most cases completely prevented | 0.0 | markedly attenuated | 0.5 | 0.0 | 0.0 ± 0.0 | 0.5 ± 0.2 | 0.0 ± 0.0 | Osteopontin (AU) ([1]; data used for Table 17 (7-day protocol), listed as Eplerenone + aldosterone + salt): 0.54 AU and 1.24 AU and 0.52 AU and 0.27 AU and 0.60 AU and 1.13 AU and 0.96 AU and 0.75 AU; Osteopontin (AU) ([1]; data used for Table 18 (14-day protocol), listed as Eplerenone + aldosterone + salt): 4.03 AU and 1.00 AU and 0.77 AU and 8.43 AU and 1.59 AU and 3.97 AU and 3.93 AU and 2.13 AU and 0.72 AU and 4.76 AU and 0.99 AU; Osteopontin (AU) ([1]; data used for Table 19 (30-day protocol), listed as Eplerenone + aldosterone + salt): 1.53 AU and 3.28 AU and 1.98 AU and 8.91 AU and 1.88 AU and 1.97 AU and 1.28 AU and 1.43 AU and 1.01 AU and 54.57 AU; Osteopontin mRNA expression ([1]; myocardium, aldosterone + salt, 7, 14, 30 days, eplerenone 100 mg/kg/day): inhibition; also recorded: significantly reduced; Cyclooxygenase-2 expression in the heart (immunostaining) ([2]; listed as eplerenone): prevention; Myocardial Necrosis (0-4) ([3]; individual rats, data used for Table 15 (14 days of treatment), incl. rat marked * excluded from statistics, listed as Eplerenone + aldosterone + salt): 1.0 (3×) and 0.0 (7×) and 2.0; Myocardial Necrosis (0-4) ([3]; individual rats, data used for Table 16 (30 days of treatment), incl. rat marked * excluded from statistics): 0.0
